Consider twelve compounds from article PMC8583042, “New Hybrid Compounds Combining Fragments of Usnic Acid and Thioether Are Inhibitors of Human Enzymes TDP1, TDP2 and PARP1” (International Journal of Molecular Sciences, 2021).

Data set [1] concerns the target T1, TDP1 (Homo sapiens, UniProt Q9NUW8).
T1 construct: made in house; host or cells: E. coli
The data set is described as follows: Real-time fluorescence assay of TDP1 activity. The data set is classed as biochemical. The settings on record: real-time fluorescent assay, 1.5 nM TDP1, 50 nM oligonucleotide; read-out: IC50 (TDP1). The text has this: We tested UA and all 14 newly synthesized UA derivatives for their TDP1 inhibitory properties by measuring their IC50 values using a real-time fluorescent assay. […] Compounds 10a,b are sulfoxide analogs of 7g,h.
Human recombinant tyrosyl-DNA phosphodiesterase 1 (TDP1) and human recombinant poly(ADP-ribose)-polymerase1 (PARP1) were expressed in the E. coli system and purified as described.
(§1) The biosensor (5′-[FAM] AAC GTC AGGGTC TTC C [BHQ]-3′) was synthesized in the Laboratory of Nucleic Acid Chemistry at the Institute of Chemical Biology and Fundamental Medicine (Novosibirsk, Russia) and was used for TDP1 enzyme activity real-time fluorescence detection. The reaction mixture (200 μL) contained a TDP1 reaction buffer (50 mM Tris-HCl, pH 8.0, 50 mM NaCl, and 7 mM β-mercaptoethanol), 50 nM oligonucleotide, varied concentrations of the tested compounds, and purified TDP1 in a final concentration 1.5 nM. The reaction mixtures were incubated at a constant temperature of 26 °C in a POLARstar OPTIMA fluorimeter (BMG LABTECH, GmbH, Ortenberg, Germany). Fluorescence intensity was measured (Ex485/Em520 nm) every 1 min for 10 min. The average values of the half maximal inhibitory concentration (IC50) were determined using an eleven-point concentration response curve and calculated using MARS Data Analysis 2.0 (BMG LABTECH). The 50% inhibitory concentration (IC50) was defined as the concentration of the compound that inhibited 50% of the enzyme activity when compared to the untreated controls. At least three independent experiments were carried out to obtain the IC50 values. To determine the kinetic parameters of the TDP1 enzymatic reaction, the apparent maximum rate of enzymatic reaction (Vmax), Michaelis constant (KM), possible inhibition mechanism, and steady-state kinetic experiments were carried out at 5 fixed concentrations of the substrate, with variation in the inhibitor concentrations. The standard reaction mixtures (200 μL) contained reaction buffer components; 50 nM, 100 nM, 200 nM, 500 nM, or 1000 nM substrate; an inhibitor; and 1.5 nM recombinant human TDP1. The initial kinetic curves were obtained in three independent experiments and statistically processed in OriginPro 8.6.0 (OriginLab, Northampton, MA, USA).

Data set [2] is described as follows: EZ4U colorimetric cytotoxicity test, HEK293A. Conditions: human, HEK293A cells; intrinsic cytotoxicity, 3 days; read-out: HEK293A CC50. The data set is classed as cell-based. The text has this: (§2) The low intrinsic cytotoxicity of the additional drug component in the clinically used anticancer cocktails with traditional drugs is very important for treatment. This approach in chemotherapy can reduce the potential resulting toxic load on the body in the case of a combined action of these inhibitors on the activity of several targets. […] The effects of the tested compounds on cell survival are shown on Figure 4 and the CC50 values for three cell lines are shown in Table 1. The intrinsic cytotoxicity of a number of the studied compounds is quite high, namely, they have close IC50 values against the TDP1 and CC50 values on one or several studied cell lines. Most of the compounds generally were more toxic for the HEK293FT and HeLa cell lines than for the HEK293A cell line (Table 1 and Figure 4). The cytotoxicity of the three leader compounds, 7g, 10a, and 7h, was quite high. […] Compound 10b was one of the least toxic among the ten tested compounds.
(§3) Cytotoxicity of the compounds was examined against human cell lines HEK293A (human embryonic kidney)—WT, TDP1 deficient (Tdp1-/-), PARP1 deficient (PARP1-/-), and HeLa (cervical cancer) using an EZ4U colorimetric test (Biomedica, Vienna, Austria). The HEK293A cell line was obtained from Thermo Fisher Scientific (Waltham, MA, USA), and the HeLa cell line was obtained from the Russian Cell Culture Collection (RCCC) Institute of Cytology RAS, St. Petersburg, Russia. The cells were grown in DMEM/F12 medium (Gibco, Thermo Fisher Scientific, Waltham, MA, USA), with 1x GlutaMAX (Gibco, Thermo Fisher Scientific, Waltham, MA, USA), 50 IU/mL penicillin, 50 μg/mL streptomycin (MP Biomedicals), and in the presence of 10% fetal bovine serum (Biolot, Saint-Petersburg, Russia) in a 5% CO2 atmosphere. Cells were grown in the presence of 1% DMSO in the control wells. After the formation of a 30–50% monolayer, the tested compounds were added to the medium, and the cell culture was monitored for 3 days. The values were normalized to their own control in each case. At least three independent experiments were carried out. The 50% cytotoxic concentration (CC50) was defined as the compound concentration that reduced the cell viability by 50% when compared to the untreated controls. The compound concentration that caused 50% cell growth inhibition was determined using OriginPro 8.6.0 software (OriginLab, Northampton, MA, USA). The measurements were carried out in three independent experiments.

A short description of data set [3]: Colorimetric cytotoxicity test, HEK293FT. The data set is classed as cell-based. Conditions: human, HEK293FT cells, intrinsic cytotoxicity.
From the text: as §2, §3

The nature of data set [4]: EZ4U colorimetric cytotoxicity test, HeLa. The data set is classed as cell-based, human. The settings on record: human, HeLa cells; intrinsic cytotoxicity, compound alone, 3 days.
From the text: as §2, §3

Data set [5] deals with T1, TDP1. Put plainly: Steady-state kinetics of the TDP1 reaction (Vmax, KM, type of inhibition). It is filed as biochemical. The settings on record: for Type of inhibition of TDP1 enzyme reaction: steady-state conditions, fall in both Vmax and KM with increasing inhibitor. Also noted: Vmax: unit not given here.
From the text: The reversible enzyme inhibitors were classified as competitive, uncompetitive, non-competitive, or mixed, depending on the binding of the enzyme, to the enzyme–substrate complex (ES) or to the enzyme–substrate–inhibitor triple complex (ESI). The enzyme could bind the inhibitor at the different steps of catalysis (before or after the substrate) and at the substrate-binding site or another site. The effect of the inhibitor on enzymatic activity can be analyzed using graphical representations of the Michaelis–Menten equation. […] TDP1 has a catalytic pocket with a narrow positively charged cleft where it binds DNA and with a relatively large cleft that contains a mixed charge distribution for the TOP1 fragment binding. It is known that TDP1 hydrolyzes the DNA–TOP1 adducts via two coordinated nucleophilic attacks of two His residues (His263 and His493) with the covalent intermediate complex formation. The enzyme reaction catalyzed by TDP1 could be inhibited in two steps: the first one is the inhibition of the TDP1 binding to the DNA substrate (the nucleophilic attack of His263). The second step is releasing TDP1 from the transition complex (nucleophilic attack by a water molecule activated by His493). Inhibition of the second step prevents the release of the DNA 3′-phosphate product from the DNA–TDP1 complex. Spinocerebellar ataxia with axonal neuropathy (SCAN1) is a neurological disease that is caused by a TDP1 His493Arg mutation. This mutation prevents the second step of hydrolysis of the intermediate complex and the enzyme remains covalently bound to DNA [47]. The uncompetitive inhibitors also prevent the second step of the reaction, stabilizing the enzyme–DNA covalent complex, which can lead to the accumulation of the single-strand breaks in the cell.
as §1
Table S25 Dependence of TDP1 reaction values V max and K M on the concentration of inhibitors
[7g], mM V max Standard Error K M Standard Error
[7h], mM V max Standard Error K M Standard Error
[10a], mM V max Standard Error K M Standard Error
[10b], mM V max Standard Error K M Standard Error

Where [6] appears, read: inhibitor 0.4 mM (so in the source).
Where [7] appears, read: inhibitor 0.8 mM (so in the source).
[8] abbreviates: inhibitor 1.6 mM (so in the source).
The mark [9] stands for this setting: inhibitor 3.2 mM (so in the source).
The mark [10] stands for this setting: inhibitor 6.4 mM (so in the source).

As a reminder, the IC50 is the midpoint of a concentration-inhibition curve. Broadly, the CC50 is the concentration giving 50% cytotoxicity.

Molecules are shown by their SMILES.

T1 sequence (Q9NUW8 whole entry): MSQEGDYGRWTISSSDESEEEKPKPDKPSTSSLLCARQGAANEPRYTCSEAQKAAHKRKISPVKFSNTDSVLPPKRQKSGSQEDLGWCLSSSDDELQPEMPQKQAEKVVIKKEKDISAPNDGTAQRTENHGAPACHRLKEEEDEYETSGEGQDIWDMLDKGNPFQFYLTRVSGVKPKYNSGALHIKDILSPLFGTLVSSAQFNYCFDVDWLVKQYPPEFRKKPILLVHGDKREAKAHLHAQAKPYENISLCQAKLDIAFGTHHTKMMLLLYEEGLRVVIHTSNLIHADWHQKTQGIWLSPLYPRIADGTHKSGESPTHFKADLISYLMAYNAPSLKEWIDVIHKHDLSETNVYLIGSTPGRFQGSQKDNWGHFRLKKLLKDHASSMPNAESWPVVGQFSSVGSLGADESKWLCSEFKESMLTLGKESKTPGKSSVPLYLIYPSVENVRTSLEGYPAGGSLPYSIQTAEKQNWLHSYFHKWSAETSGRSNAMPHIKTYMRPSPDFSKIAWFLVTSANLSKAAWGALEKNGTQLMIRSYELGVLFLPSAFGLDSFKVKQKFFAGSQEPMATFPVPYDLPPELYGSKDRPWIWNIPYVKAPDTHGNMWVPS

For the compound `CC(=O)C1=C(O)C=C2Oc3c(C(=O)CSc4nnc[nH]4)c(O)c(C)c(O)c3C2(C)C1=O` (stereo not shown) [7d], at TDP1 [1], the IC50 was 25.2 ± 6.5 µM.
For the compound `CC(=O)C1=C(O)C=C2Oc3c(C(=O)CSc4ncccn4)c(O)c(C)c(O)c3[C@@]2(C)C1=O` [7j, (2R)-4-acetyl-5,11,13-trihydroxy-2,12-dimethyl-10-[2-(pyrimidin-2-ylsulfanyl)acetyl]-8-oxatricyclo[7.4.0. 0^2,7]trideca-1(13),4,6,9,11-pentaen-3-one], the IC50 on TDP1 [1] was found to be 16.9 ± 2.4 µM.
As for `CC(=O)C1=C(O)C=C2Oc3c(C(=O)CSc4nc5ccccc5o4)c(O)c(C)c(O)c3C2(C)C1=O` (stereo not shown) [7e], on TDP1 [1], the IC50 amounted to 3.2 ± 0.5 µM. Besides, the CC50 at 3 days in data set [2] stood at 26 ± 2 µM; in data set [3] it was 4.5 ± 1 µM; in data set [4], 2.9 ± 0.2 µM.
`CC(=O)C1=C(O)C=C2Oc3c(C(=O)CSc4nc5ccccc5s4)c(O)c(C)c(O)c3C2(C)C1=O` (stereo not shown) [7g]: on TDP1 [1], the IC50 worked out at 1.7 ± 0.6 µM. Moreover, the Vmax on TDP1 [5] (setting [6]) is 35.4; at TDP1 [5] (setting [7]) it was 25.6; on TDP1 [5] (setting [8]) it was 23.0; on TDP1 [5] (setting [9]) it was 19.4; at TDP1 [5] (setting [10]), 10.9. Further, at TDP1 [5], the “Type of inhibition of TDP1 enzyme reaction” value is “uncompetitive”. In addition, the CC50 at 3 days in data set [2] was found to be 3.5 ± 0.3 µM; in data set [3], 3 ± 1 µM; in data set [4] it was 2 ± 0.6 µM.
For `CC(=O)C1=C(O)C=C2Oc3c(C(=O)CSc4ncccc4C(=O)O)c(O)c(C)c(O)c3C2(C)C1=O` (stereo not shown) [7k], the IC50 on TDP1 [1] was 19.6 ± 2.8 µM.
`CC(=O)C1=C(O)C=C2Oc3c(C(=O)CSc4nnc(N)s4)c(O)c(C)c(O)c3[C@@]2(C)C1=O` [7c, (2R)-4-acetyl-10-{2-[(5-amino-1,3,4-thiadiazol-2-yl)sulfanyl]acetyl}-5,11,13-trihydroxy-2,12-dimethyl-8-oxatricyclo[7.4.0. 0^2,7]trideca-1(13),4,6,9,11-pentaen-3-one]: the 50% inhibitory concentration (IC50) on TDP1 [1] was found to be 4.3 ± 0.5 µM. Further, the values for the cytotoxic concentration (CC50) at 3 days in data set [2], in data set [3] and in data set [4] were more than 50 µM, 35 ± 2 µM and 33 ± 2 µM, respectively.
For the compound `CC(=O)C1=C(O)C=C2Oc3c(C(=O)CSc4ccc(Cl)cc4)c(O)c(C)c(O)c3C2(C)C1=O` (stereo not shown) [7h], on TDP1 [1], the IC50 came to 2.2 ± 0.5 µM. In addition, the Vmax on TDP1 [5] (setting [6]) is reported as 31.0; on TDP1 [5] (setting [7]), 26.7; at TDP1 [5] (setting [8]) it was 18.5; on TDP1 [5] (setting [9]), 15.3; on TDP1 [5] (setting [10]), 11.2. Further, the “Type of inhibition of TDP1 enzyme reaction” value on TDP1 [5] is “uncompetitive”. For the same compound, the CC50 at 3 days was found to be 10 ± 2 µM in data set [2], 4 ± 1 µM in data set [3] and 2.5 ± 0.5 µM in data set [4].
With `CC(=O)C1=C(O)C=C2Oc3c(C(=O)C[S+]([O-])c4ccc(Cl)cc4)c(O)c(C)c(O)c3[C@@]2(C)C1=O` (stereo partly shown) [10b], the Vmax at TDP1 [5] (inhibitor 0.2 mM (so in the source)) was determined as 18.7; on TDP1 [5] (setting [6]) it was 10.7; at TDP1 [5] (setting [7]), 8.5; at TDP1 [5] (setting [8]) it was 6.3. Besides, the “Type of inhibition of TDP1 enzyme reaction” value at TDP1 [5] is “uncompetitive”. The CC50 at 3 days in data set [2] is more than 50 µM; in data set [3], 20 ± 3 µM; in data set [4], 27 ± 2 µM.
In the case of `CC(=O)C1=C(O)C=C2Oc3c(C(=O)CSc4ccccn4)c(O)c(C)c(O)c3[C@@]2(C)C1=O` [7i, (2R)-4-acetyl-5,11,13-trihydroxy-2,12-dimethyl-10-[2-(pyridin-2-ylsulfanyl)acetyl]-8-oxatricyclo[7.4.0. 0^2,7]trideca-1(13),4,6,9,11-pentaen-3-one], on TDP1 [1], the IC50 stood at 11.9 ± 0.4 µM.
As to `CC(=O)C1=C(O)C=C2Oc3c(C(=O)CSc4nc5ccccc5[nH]4)c(O)c(C)c(O)c3[C@@]2(C)C1=O` [7f, (2R)-4-acetyl-10-[2-(1H-1,3-benzodiazol-2-ylsulfanyl)acetyl]-5,11,13-trihydroxy-2,12-dimethyl-8-oxatricyclo[7.4.0.0^2,7]trideca-1(13),4,6,9,11-pentaen-3-one], on TDP1 [1], the IC50 was 2.4 ± 1 µM. Moreover, the CC50 at 3 days in data set [2] was more than 50 µM; in data set [3], 10 ± 2 µM; in data set [4] it was 13 µM.
Consider `CC(=O)C1=C(O)C=C2Oc3c(C(=O)CSC4=NCCS4)c(O)c(C)c(O)c3[C@@]2(C)C1=O` [7b, (2R)-4-acetyl-10-[2-(4,5-dihydro-1,3-thiazol-2-ylsulfanyl)acetyl]-5,11,13-trihydroxy-2,12-dimethyl-8-oxatricyclo[7.4.0.0^2,7]trideca-1(13),4,6,9,11-pentaen-3-one], for which the IC50 at TDP1 [1] stood at 4.4 ± 1 µM. In addition, the CC50 at 3 days in data set [2] is more than 50 µM; in data set [3] it was 16 ± 5 µM; in data set [4] it was 11 ± 0.5 µM.
As to `CC(=O)C1=C(O)C=C2Oc3c(C(=O)CSC(=S)N(C)C)c(O)c(C)c(O)c3[C@@]2(C)C1=O` [7a, (2R)-4-acetyl-10-{2-[(dimethylcarbamothioyl)sulfanyl]acetyl}-5,11,13-trihydroxy-2,12-dimethyl-8-oxatricyclo [7.4.0.0^2,7]trideca-1(13),4,6,9,11-pentaen-3-one], the IC50 on TDP1 [1] was 5.4 ± 2.9 µM. For the same compound, the cytotoxic concentration (CC50) at 3 days in data set [2] was more than 50 µM; in data set [3] it was more than 50 µM; in data set [4], 13 ± 0.5 µM.
